The text below walks through data of patent US9579319B2 (Redx Pharma PLC, priority 2013, dated 2017).

Where two headings read alike, the source gives them in different places. Bounds are passed on as bounds.

This assay has as its system Hedgehog signalling pathway. In words: Gli-reporter NIH3T3 luciferase assay (Hedgehog pathway inhibition). The class given is cell-based. The following applies: NIH3T3, Gli-reporter NIH-3T3 cells, recombinant mouse sonic hedgehog, 24 hours, luminescence. The procedure: In vitro biological evaluation of compounds of the invention was carried out using the procedure detailed below. The procedure provides activity data for the compounds of the invention against the Hedgehog signalling pathway. The activity is represented as IC50 values in Table 12 below.
The Gli-reporter NIH3T3 cell line (BPS Biosciences) was grown according to the suppliers recommendations. Briefly, cells were maintained in growth medium (DMEM supplemented with 10% calf serum, 1% Penicillin/Streptomycin, and 500 µg/mL of Geneticin) and grown at 37° C., 5% CO2. In order to passage cells they were first rinsed with phosphate buffered saline before the addition of 0.05% Trypsin/EDTA. Fresh growth media was added and the cells were transferred to a centrifuge tube, spun and resuspended at an appropriate cell density.
Gli-reporter NIH-3T3 cells were seeded at 20,000 cells/well into 96 well, poly-D-lysine coated white clear bottomed full area TC plates in growth media (without geneticin). Three wells were left with just media as cell free controls. Cells were then incubated for 24 hours at 37° C. in a 5% CO2.
Serial dilutions of the test compounds were prepared in 100% DMSO. 10 μl of compound or DMSO from each well was pipetted into a sterile, 0.5 ml deep well conical bottomed 96 well plate (intermediate plate). 190 μl of warmed assay media (Opti-MEM supplemented with 0.5% calf serum, 1% non-essential amino acids, 1 mM sodium pyruvate, 10 mM HEPES, 1% penicillin/Streptomycin) was then added to each well and mixed five times at 180 μl by electronic pipette to ensure homogeneity of the compound solution. This 1:20 dilution gives a top concentration of 50 μM in 5% DMSO, 95% assay media. 10 μl was pipetted from each well of the intermediate plate into a second deep well sterile plate. 490 μl of warm assay media was then added to each well and mixed five times at 300 μl. This gives a final top concentration of 1 μM in 0.1% DMSO.
After the 24 hour incubation, media was carefully removed by pipette and replaced with 45 μl of compound dilutions in triplicate. This was incubated for one hour at 37° C. in a 5% CO2. After an hour, 5 μl 10 μg/mL recombinant mouse sonic hedgehog (R&D Systems) was added to each well and the plates were incubated for a further 24 hours at 37° C., 5% CO2.
After 24 hours, plates were removed from the incubator and left to acclimatise to room temperature for 20 minutes. 50 μl of OneGLO assay reagent (Promega) was then added to each well and the plates gently shaken for a further 30 minutes. Plates were then read for luminescence on the EnVision plate reader (PerkinElmer).

[1] abbreviates: read-out: Category (Hedgehog pathway inhibition activity, IC50).

With `Cc1c(-c2ccnn2C)nnc(N2CCC(N(C)C(=O)NC(C)(C)C)CC2)c1C` [Example 152, 3-tert-butyl-1-[1-[4,5-dimethyl-6-(2-methylpyrazol-3-yl)pyridazin-3-yl]-4-piperidyl]-1-methyl-urea], the IC50 (commonly the point on the concentration scale where inhibition reaches its midpoint) (read-out: Gli luc IC50) is > 200 nM.
In the case of `Cn1nccc1-c1nnc(N2CCC(NCc3ccccc3Cl)CC2)c2ccccc12` [Example 38, N-[(2-chlorophenyl)methyl]-1-[4-(2-methylpyrazol-3-yl)phthalazin-1-yl]piperidin-4-amine], the concentration for half-maximal inhibition (IC50) under setting [1] lay in the range of 10 to 200 nM.
`Cc1c(-c2ccnn2C)nnc(N2CCC(NC(=O)NC3(C(F)(F)F)CC3)CC2)c1C` [Example 108, 1-[1-[4,5-dimethyl-6-(2-methylpyrazol-3-yl)pyridazin-3-yl]-4-piperidyl]-3-[1-(trifluoromethyl)cyclopropyl]urea]: for the setting “read-out: Gli luc IC50”, the IC50 was 10 to 200 nM.
Turning to `CN(Cc1ccc(F)cc1C(F)(F)F)C1CCN(c2nnc(-c3ccnn3C)c3ccccc23)C1` (stereo not drawn) [Example 55, N-[[4-fluoro-2-(trifluoromethyl)phenyl]methyl]-N-methyl-1-[4-(2-methylpyrazol-3-yl)phthalazin-1-yl]pyrrolidin-3-amine], under setting [1], the IC50 lay in the range of 10 to 200 nM.
Regarding `CC(NC1CCN(c2nnc(-c3ccnn3C)c3ccccc23)CC1)c1ccc(F)cc1C(F)(F)F` (stereo not drawn) [Example 143, N-[1-[4-fluoro-2-(trifluoromethyl)phenyl]ethyl]-1-[4-(2-methylpyrazol-3-yl)phthalazin-1-yl]piperidin-4-amine], the IC50 (read-out: Gli luc IC50) fell in the range of 10 to 200 nM.
Still for that read-out and setting: under `CN(Cc1cccnc1C(F)(F)F)C1CCN(c2nnc(-c3ccnn3C)c3ccccc23)CC1` [Example 157, N-methyl-1-[4-(2-methylpyrazol-3-yl)phthalazin-1-yl]-N-[[2-(trifluoromethyl)-3-pyridyl]methyl]piperidin-4-amine] stands < 10 nM.
For the compound `Cn1nccc1-c1nnc(N2CCC(NCc3ccc(F)cc3F)CC2)c2ccccc12` [Example 74, N-[(2,4-difluorophenyl)methyl]-1-[4-(2-methylpyrazol-3-yl)phthalazin-1-yl]piperidin-4-amine], the IC50 under setting [1] fell in the range of 200 to 2000 nM.
Regarding `Cc1c(-c2ccnn2C)nnc(N2CCC(N(C)C(=O)Nc3ccccc3F)CC2)c1C` [Example 126, 1-[1-[4,5-dimethyl-6-(2-methylpyrazol-3-yl)pyridazin-3-yl]-4-piperidyl]-3-(2-fluorophenyl)-1-methyl-urea], where the note is “read-out: Gli luc IC50”, the IC50 lay in the range of 10 to 200 nM.
Turning to `Cn1nccc1-c1nnc(N2CCC(NC(=O)Nc3ccccc3C(F)(F)F)CC2)c2ccccc12` [Example 21, 1-[1-[4-(2-methylpyrazol-3-yl)phthalazin-1-yl]-4-piperidyl]-3-[2-(trifluoromethyl)phenyl]urea], the IC50 under setting [1] was < 10 nM.
Turning to `Cc1c(-c2ccnn2C)nnc(N2CCC(NC(=O)Nc3ccc(F)cc3C(F)(F)F)CC2)c1C` [Example 100, 1-[1-[4,5-dimethyl-6-(2-methylpyrazol-3-yl)pyridazin-3-yl]-4-piperidyl]-3-[4-fluoro-2-(trifluoromethyl)phenyl]urea], for the setting “read-out: Gli luc IC50”, the IC50 fell in the range of 10 to 200 nM.
Still for that read-out and setting: to `Cn1nccc1-c1nnc(N2CCC(CNCc3ccc(F)cc3C(F)(F)F)C2)c2ccccc12` (stereo not drawn) [Example 140, 1-[4-fluoro-2-(trifluoromethyl)phenyl]-N-[[1-[4-(2-methylpyrazol-3-yl)phthalazin-1-yl]pyrrolidin-3-yl]methyl]methanamine] belongs 10 to 200 nM.
As for `CN(Cc1ccc(F)nc1F)C1CCN(c2nnc(-c3ccnn3C)c3ccccc23)CC1` [Example 27, N-[(2,6-difluoro-3-pyridyl)methyl]-N-methyl-1-[4-(2-methylpyrazol-3-yl)phthalazin-1-yl]piperidin-4-amine], the 50% inhibitory concentration (IC50) under setting [1] was in the range of 10 to 200 nM.
For `Cn1nccc1-c1nnc(N2CCC(NC(=O)NC3(C(F)(F)F)CC3)CC2)c2ccccc12` [Example 109, 1-[1-[4-(2-methylpyrazol-3-yl)phthalazin-1-yl]-4-piperidyl]-3-[1-(trifluoromethyl)cyclopropyl]urea], the concentration for half-maximal inhibition (IC50) (read-out: Gli luc IC50) lay within 10 to 200 nM.
Still for that read-out and setting: to `Cn1nccc1-c1nnc(N2CCC(NC(=O)NC(C)(C)C)CC2)c2c1CCC2` [Example 161, 1-tert-butyl-3-[1-[1-(2-methylpyrazol-3-yl)-6,7-dihydro-5H-cyclopenta[d]pyridazin-4-yl]-4-piperidyl]urea] belongs 10 to 200 nM; to `Cc1c(-c2ccncc2)nnc(N2CCC(NCc3ccc(F)cc3C(F)(F)F)CC2)c1C` [Example 123, 1-[4,5-dimethyl-6-(4-pyridyl)pyridazin-3-yl]-N-[[4-fluoro-2-(trifluoromethyl)phenyl]methyl]piperidin-4-amine], 10 to 200 nM.
`COc1ccccc1CN(C)C1CCN(c2nnc(-c3ccnn3C)c3ccccc23)CC1` [Example 61, N-[(2-methoxyphenyl)methyl]-N-methyl-1-[4-(2-methylpyrazol-3-yl)phthalazin-1-yl]piperidin-4-amine]: the IC50 under setting [1] was 200 to 2000 nM.
Same read-out and setting: under `CC(=O)N(Cc1ccc(F)cc1C(F)(F)F)C1CCN(c2nnc(-c3ccnn3C)c3ccccc23)CC1` [Example 77, N-[[4-fluoro-2-(trifluoromethyl)phenyl]methyl]-N-[1-[4-(2-methylpyrazol-3-yl)phthalazin-1-yl]-4-piperidyl]acetamide] stands 10 to 200 nM.
`Cn1nccc1-c1nnc(N2CCC(Nc3ccc(F)cc3C(F)(F)F)CC2)c2c1CCC2` [Example 142, N-[4-fluoro-2-(trifluoromethyl)phenyl]-1-[1-(2-methylpyrazol-3-yl)-6,7-dihydro-5H-cyclopenta[d]pyridazin-4-yl]piperidin-4-amine]: under “read-out: Gli luc IC50”, the IC50 lay in the range of 10 to 200 nM.
Consider `COc1nnc(N2CCC(NCc3ccc(F)cc3C(F)(F)F)CC2)c2ccccc12` [Example 58, N-[[4-fluoro-2-(trifluoromethyl)phenyl]methyl]-1-(4-methoxyphthalazin-1-yl)piperidin-4-amine], for which, under setting [1], the IC50 lay within 200 to 2000 nM.
In the case of `COc1cccc(CNC2CCN(c3nnc(-c4ccnn4C)c4ccccc34)CC2)c1` [Example 70, N-[(3-methoxyphenyl)methyl]-1-[4-(2-methylpyrazol-3-yl)phthalazin-1-yl]piperidin-4-amine], the IC50 under setting [1] fell in the range of 10 to 200 nM.
On the same count and under the same terms, to `Cn1nccc1-c1nnc(N2CCC(NC(=O)Nc3cccc(F)c3)CC2)c2ccccc12` [Example 16, 1-(3-fluorophenyl)-3-[1-[4-(2-methylpyrazol-3-yl)phthalazin-1-yl]-4-piperidyl]urea] belongs < 10 nM.
As for `CN(Cc1ccc(F)cc1C(F)(F)F)C1CCN(c2nnc(-c3ccnn3C)c3ncccc23)CC1` [Example 130, N-[[4-fluoro-2-(trifluoromethyl)phenyl]methyl]-N-methyl-1-[8-(2-methylpyrazol-3-yl)pyrido[2,3-d]pyridazin-5-yl]piperidin-4-amine], the concentration for half-maximal inhibition (IC50) (read-out: Gli luc IC50) is > 200 nM.
Same read-out and setting: to `COc1cc(-c2nnc(N3CCC(NS(=O)(=O)c4ccc(F)cc4C(F)(F)F)CC3)c(C)c2C)ccn1` [Example 172, 4-fluoro-N-[1-[6-(2-methoxy-4-pyridyl)-4,5-dimethyl-pyridazin-3-yl]-4-piperidyl]-2-(trifluoromethyl)benzenesulfonamide] belongs > 1000 nM.
Take `Cn1nccc1-c1nnc(N2CCC(NC(=O)OC(C)(C)C)CC2)c2ccccc12` [Example 66, tert-butyl N-[1-[4-(2-methylpyrazol-3-yl)phthalazin-1-yl]-4-piperidyl]carbamate]: the half-maximal inhibitory concentration (IC50) under setting [1] was 10 to 200 nM.
